Data reported in PubChem BioAssay AID2060885 (Molecular Pharmacology Branch, DTP, NCI, 2025).

Tested on: NCI-H23 complex spheroids with HUVEC/MSC, viability
Assay: Anticancer human tumor NCI-H23 cell line growth inhibition [RAS];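 note: spheroids exposed to compound for 7 days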
Details: for IC50: curve of first compound; for viability, T/C: stronger effect = lower value; active = viability on the fitted dose curve at most 10% of control; inactive = the rest
Description: RAS pathway inhibitors in Combinations in Complex Spheroids
A high-throughput screen of multi-cell type tumor spheroids was designed to identify active combinations of RAS pathway inhibitors and targeted small molecules. Complex spheroids include a stromal component modeled by human endothelial cells (HUVEC) and fibroblasts modeled by human mesenchymal stem cells (MSCs). The concentration ranges selected for each drug and investigational agent were based upon clinically achievable concentrations if the clinical Cmax of the agent was known.
Compounds. The drugs and investigational agents: abemaciclib (NSC768073), cobimetinib (NSC768068), divarasib (GDC6063, NSC841802), docetaxel (NSC628503), GDC-1971 (RLY-1971, NSC841576), gemcitabine (NSC613327), inavolisib (NSC800729), ipatasertib (NSC767898), KB-0742 (NSC834161), MRTX-1133 (NSC836407), osimertinib (NSC779217), RMC-4630 (NSC839698), RMC-6236 (NSC851965), RMC-6291 (NSC852671), Ro-3306 (NSC812927), sapanisertib (NSC764658), SN-38 (NSC673596), staurosporine (NSC755774), SY5609 (NSC837396), and tovorafenib (DAY101, NSC766906), were obtained from the National Cancer Institute (NCI) Developmental Therapeutics Program Chemical Repository. The FDA-approved anticancer drug set is available from the NCI Developmental Therapeutics Program. […] The stock solutions were prepared in dimethyl sulfoxide (DMSO, Sigma-Aldrich, St. Louis, MO, cat. D2650) at 800-fold the tested concentration and stored at -70 degrees C prior to their use. All drugs and investigational agents were tested over a range starting from a high concentration at or near the clinical Cmax and decreasing in half-log increments. If the clinical Cmax for an agent had not been determined, the highest concentration tested was 10 microM.
Cell Culture. All cells were maintained in an incubator at 37 degrees C and 5% CO2 with 95% humidity. The PDC lines were cultured according to standard operating procedures established by the NCI PDMR. All PDCs were thawed and cultured in Matrigel-coated flasks prepared with a working solution of 1X Ham's F-12 nutrient mix, without supplementation (Invitrogen, Waltham, MA, cat. 11765054), 100 U/mL penicillin-streptomycin (Invitrogen, cat. 15140122), and 2.5% Matrigel (Corning Inc., Corning, NY, cat. 354248) for the first three passages. The 362531-283-R-J2-PDC and 782815-120-R-J1-PDC lines were cultured in 6C/Colon 1B media, which includes advanced DMEM/F-12 (Thermo Fisher Scientific, cat. 12634028), 10 mM HEPES (Thermo Fisher Scientific, cat. 15630080), 1X GlutaMAX supplement (Thermo Fisher Scientific, cat. 35050061), 0.1 mg/mL primocin (InvivoGen, San Diego, CA, cat. ant-pm-2), 10% defined fetal bovine serum, heat inactivated (HyClone Laboratories Inc., Logan, UT, cat. SH30070.03HI), 50% L-WRN conditioned media (ATCC, cat. CRL-3276), 1.25 mM N-Acetyl-L-cysteine (Sigma-Aldrich, cat. A9165), 10 mM nicotinamide (Sigma-Aldrich, cat. N0636), 1X B-27 supplement (Thermo Fisher Scientific, cat. 17504044), 1X N-2 supplement (Thermo Fisher Scientific, cat. 17502048), 50 ng/mL human EGF (Thermo Fisher Scientific, cat. PHG0311), and 10 microM Y-27632 dihydrochloride (Tocris Bioscience, cat. 1254). The K12877-001-R-J1-PDC line was cultured in 6I media, which includes all 6C/Colon 1B media plus 10 ng/mL human FGF-10 (PeproTech, cat. 100-26), 1 ng/mL human FGF-2 (PeproTech, cat. 100-18B), 1 µM prostaglandin E2 (Tocris Bioscience, cat. 2296), […] hydrocortisone (Sigma-Aldrich, cat. H4001), and […] bovine insulin (Sigma-Aldrich, cat. I6634). The K86415-001-R-J1-PDC line was cultured in 6D media, which includes all 6C/Colon 1B media components minus the L-WRN conditioned media. The 485176-168-R4-J1-PDC was cultured in PANC media, which includes all 6C/Colon 1B media plus 100 ng/mL human FGF-10 (PeproTech, cat. 100-26), 500 nM SB-431542 (Selleckchem, cat. S1067), and 10 nM gastrin (Tocris Bioscience, cat. 3006). […]

CC1(O)CCCC1n1c(=O)c(C(F)F)cc2cnc(NC3CCN(S(C)(=O)=O)CC3)nc21 (configuration not stated) + C#Cc1c(F)ccc2cc(O)cc(-c3ncc4c(N5CC6CCC(C5)N6)nc(OCC56CCCN5CC(F)C6)nc4c3F)c12
inactive: viability, T/C (second compound 0.0316 µM, first compound 0.0316 µM) 93.3% | viability, T/C (second compound 0.0316 µM, first compound 0.1 µM) 92.8% | viability, T/C (second compound 0.0316 µM, first compound 0.316 µM) 75.2% | viability, T/C (second compound 0.0316 µM, first compound 1 µM) 80.1% | viability, T/C (second compound 0.0316 µM, first compound 3.16 µM) 81.7% | viability, T/C (second compound 0.0316 µM, first compound 10 µM) 15.6% | viability, T/C (second compound 0.1 µM, first compound 0.0316 µM) 90.2% | viability, T/C (second compound 0.1 µM, first compound 0.1 µM) 87.4% | viability, T/C (second compound 0.1 µM, first compound 0.316 µM) 58.7% | viability, T/C (second compound 0.1 µM, first compound 1 µM) 77.3% | viability, T/C (second compound 0.1 µM, first compound 3.16 µM) 76.4% | viability, T/C (second compound 0.1 µM, first compound 10 µM) 16.3% | viability, T/C (second compound 0.316 µM, first compound 0.0316 µM) 86.5% | viability, T/C (second compound 0.316 µM, first compound 0.1 µM) 74.1% | viability, T/C (second compound 0.316 µM, first compound 0.316 µM) 58% | viability, T/C (second compound 0.316 µM, first compound 1 µM) 65% | viability, T/C (second compound 0.316 µM, first compound 3.16 µM) 72.2% | viability, T/C (second compound 0.316 µM, first compound 10 µM) 13.7% | viability, T/C (second compound 1 µM, first compound 0.0316 µM) 62.6% | viability, T/C (second compound 1 µM, first compound 0.1 µM) 66.1% | viability, T/C (second compound 1 µM, first compound 0.316 µM) 46.6% | viability, T/C (second compound 1 µM, first compound 1 µM) 52.7% | viability, T/C (second compound 1 µM, first compound 3.16 µM) 66.3% | viability, T/C (second compound 1 µM, first compound 10 µM) 10.9% | viability, T/C (second compound 3.16 µM, first compound 0.0316 µM) 48.3% | viability, T/C (second compound 3.16 µM, first compound 0.1 µM) 40.2% | viability, T/C (second compound 3.16 µM, first compound 0.316 µM) 34.7% | viability, T/C (second compound 3.16 µM, first compound 1 µM) 40% | viability, T/C (second compound 3.16 µM, first compound 3.16 µM) 42% | viability, T/C (second compound 3.16 µM, first compound 10 µM) 7.05% | viability, T/C (second compound 10 µM, first compound 0.0316 µM) 32.6% | viability, T/C (second compound 10 µM, first compound 0.1 µM) 28.3% | viability, T/C (second compound 10 µM, first compound 0.316 µM) 24.9% | viability, T/C (second compound 10 µM, first compound 1 µM) 27.6% | viability, T/C (second compound 10 µM, first compound 3.16 µM) 29.6% | viability, T/C (second compound 10 µM, first compound 10 µM) 2.78%
5.24 µM: IC50 (second compound 0.1 µM)
< 0.0316 µM: IC50 (second compound 3.16 µM) | IC50 (second compound 10 µM)
3.91 µM: IC50 (second compound 1 µM)
5.49 µM: IC50 (second compound 0.0316 µM)
4.83 µM: IC50 (second compound 0.316 µM)
